{
  "source": "patent US20140303092A1",
  "about": "(CHIMERIX, INC., priority 2011, published 2014)",
  "test": "Study HDP-CDV-201: safety and tolerability (adverse events, laboratory abnormalities, discontinuations)",
  "format": "in vivo, human (adult allogeneic HSCT recipients)",
  "experimental": "Clinical Studies of HDP-CDV were performed and described in detail in the following Examples. For example, HDP-CDV-201 is a placebo-controlled, dose-escalating trial in HSCT CMV (R+) recipients, evaluating the ability of HDP-CDV to prevent or control CMV infection was carried out. Five cohorts were established in which participants or subjects received either placebo or the HDP-CDV orally, in doses ranging from 40 mg weekly (QW) to 200 mg twice weekly (BIW). Subjects who were post-HSCT were enrolled at the time of engraftment and randomized to HDP-CDV or placebo (3 to 1 ratio) and received blinded therapy until approximately 100 day post-transplantation. HDP-CDV doses were 40 mg QW, 100 mg QW, 200 mg QW, 200 mg BIW and 100 mg BIW. Escalation to the next dose was decided by the data monitoring committee after review of the safety data from the previous Cohort. Subjects who developed CMV disease or CMV infection requiring pre-emptive therapy with local standard of care were discontinued from blinded therapy and followed for 4 weeks. Subjects who completed treatment with blinded therapy were followed for 8 weeks post-therapy.\nData from Study HDP-CDV-201 also provided characterization of the safety and tolerability profile of HDP-CDV when administered for the prevention or control of CMV infection in high risk (R^+) post-HSCT adult subjects.\nThe Safety population (SAFETY) included all randomized subjects who took at least one dose of study treatment. This population was used to summarize safety outcomes based on the treatment actually received, in cases where a subject was treated contrary to the randomization schedule.\nThe safety and tolerability profile of HDP-CDV, including subject demographics and Baseline characteristics; the AE profile; and laboratory abnormalities of interest were analyzed in the cohorts followed in this investigation.\nSubjects completing the treatment period received a full course of study medication; those completing the entire study attended visits through 8 weeks of follow up. Subjects who discontinued treatment may have done so for protocol specified reasons (e.g. development of clinically significant CMV infection requiring preemptive treatment with excluded anti-CMV medications) or for other reasons (e.g., withdrawal, adverse events, loss to follow-up). The disposition of subjects in Study HDP-CDV-201 during the double-blind, placebo-controlled treatment period (through Week 11) is listed by dosing Cohort in TABLE 23.\nAdverse events were examined by severity to ensure that all safety signals were identified in this study population. Because of the frequency of events in HSCT recipients, particular attention was given to evaluation of Grade 3 […], 4 (severe), and 5 (fatal) adverse events.\nOnly those preferred terms for which at least one Grade 3 or higher event was experienced in any treatment group are listed. Cytomegalovirus-related AEs are excluded from this analysis.\nHDP-CDV is a lipid conjugate of CDV. Because CDV is known to have adverse effects on renal function and bone marrow, decreased GFR and persistent neutropenia were identified as AEs of special interest. Key renal and hematological (TABLE 30) laboratory parameters were measured and listed below by Study HDP-CDV-201 treatment groups. TABLE 30 includes abnormal levels of serum creatinine, neutrophils, platelets, WBCs, and hemoglobin and includes data at Screening and during the treatment period.\nA common metric for unit based dosing of medications is by weight (mg/kg). When the distribution of weights was examined for all subjects participating in the study, the median was 78 kg and the lower 25th percentile weight was approximately 65 kg, which translates to a cut-off of ˜3 mg/kg for a 200 mg total weekly dose. Based upon this approach, a cut-off of 3 mg/kg was used to assess the frequency of diarrhea and associated GI AEs reported for the subjects in Cohorts 3 or 4a (TABLE 40).",
  "key": {"[1]": {"settings": "Cohort 3, 200 mg QW, through Week 11"}},
  "data": [
    {"compound": "CCCCCCCCCCCCCCCCOCCCOP(=O)(O)COC(CO)Cn1ccc(N)nc1=O", "note": "(centres unmarked) [HDP-CDV]", "values": [
      {"measurement": "TEAE Vomiting", "setting": "Cohort 3, 200 mg QW, N = 39", "result": "6 (15.4%) n (%)"},
      {"measurement": "Vomiting leading to study drug withdrawal", "setting": "Cohort 3, 200 mg QW, N = 39", "result": 0, "unit": "%"},
      {"measurement": "All AEs, Grade 5 (deaths)", "setting": "Cohort 3, 200 mg QW, N = 39, entire study duration", "result": "3 (7.7%)"},
      {"measurement": "Subjects completed treatment", "setting": "[1]", "result": "18 (46.2%) n (%)"},
      {"measurement": "Subjects who permanently discontinued treatment", "setting": "[1]", "result": "21 (53.8%) n (%)"},
      {"measurement": "TEAE Abdominal pain Grade 2, subjects", "setting": "Cohort 3, 200 QW >3 mg/kg", "result": 0},
      {"measurement": "TEAE Abdominal pain Grade 3, subjects", "setting": "Cohort 3, 200 QW >3 mg/kg", "result": "1 (7.1%)"},
      {"measurement": "TEAE Abdominal pain Grade 4, subjects", "setting": "Cohort 3, 200 QW >3 mg/kg", "result": 0},
      {"measurement": "TEAE Abdominal pain Grade 5, subjects", "setting": "Cohort 3, 200 QW >3 mg/kg", "result": 0},
      {"measurement": "TEAE Abdominal pain Overall Frequency, subjects", "setting": "Cohort 3, 200 QW >3 mg/kg", "result": "2 (14.3%)"},
      {"measurement": "TEAE Diarrhea Grade 2, subjects", "setting": "Cohort 3, 200 QW >3 mg/kg", "result": "4 (28.6%)"},
      {"measurement": "TEAE Diarrhea Grade 3, subjects", "setting": "Cohort 3, 200 QW >3 mg/kg", "result": "1 (7.1%)"},
      {"measurement": "TEAE Diarrhea Grade 4, subjects", "setting": "Cohort 3, 200 QW >3 mg/kg", "result": 0},
      {"measurement": "TEAE Diarrhea Grade 5, subjects", "setting": "Cohort 3, 200 QW >3 mg/kg", "result": 0},
      {"measurement": "TEAE Diarrhea Overall Frequency, subjects", "setting": "Cohort 3, 200 QW >3 mg/kg", "result": "8 (57.1%)"},
      {"measurement": "TEAE Hypokalaemia Grade 2, subjects", "setting": "Cohort 3, 200 QW >3 mg/kg", "result": "1 (7.1%)"},
      {"measurement": "TEAE Hypokalaemia Grade 3, subjects", "setting": "Cohort 3, 200 QW >3 mg/kg", "result": 0},
      {"measurement": "TEAE Hypokalaemia Grade 4, subjects", "setting": "Cohort 3, 200 QW >3 mg/kg", "result": 0},
      {"measurement": "TEAE Hypokalaemia Grade 5, subjects", "setting": "Cohort 3, 200 QW >3 mg/kg", "result": 0},
      {"measurement": "TEAE Hypokalaemia, subjects", "setting": "Cohort 3, 200 QW >3 mg/kg", "result": "4 (28.6%)"},
      {"measurement": "TEAE Nausea Grade 2, subjects", "setting": "Cohort 3, 200 QW >3 mg/kg", "result": "1 (7.1%)"},
      {"measurement": "TEAE Nausea Grade 3, subjects", "setting": "Cohort 3, 200 QW >3 mg/kg", "result": 0},
      {"measurement": "TEAE Nausea Grade 4, subjects", "setting": "Cohort 3, 200 QW >3 mg/kg", "result": 0},
      {"measurement": "TEAE Nausea Grade 5, subjects", "setting": "Cohort 3, 200 QW >3 mg/kg", "result": 0},
      {"measurement": "TEAE Nausea Overall Frequency, subjects", "setting": "Cohort 3, 200 QW >3 mg/kg", "result": "3 (21.4%)"},
      {"measurement": "TEAE Vomiting Grade 2, subjects", "setting": "Cohort 3, 200 QW >3 mg/kg", "result": 0},
      {"measurement": "TEAE Vomiting Grade 3, subjects", "setting": "Cohort 3, 200 QW >3 mg/kg", "result": 0},
      {"measurement": "TEAE Vomiting Grade 4, subjects", "setting": "Cohort 3, 200 QW >3 mg/kg", "result": 0},
      {"measurement": "TEAE Vomiting Grade 5, subjects", "setting": "Cohort 3, 200 QW >3 mg/kg", "result": 0},
      {"measurement": "TEAE Vomiting Overall Frequency, subjects", "setting": "Cohort 3, 200 QW >3 mg/kg", "result": "2 (14.3%)"},
      {"measurement": "TEAE Abdominal pain Grade 2, subjects", "setting": "Cohort 3, 200 QW ≦3 mg/kg", "result": "1 (4.0%)"},
      {"measurement": "TEAE Abdominal pain Grade 3, subjects", "setting": "Cohort 3, 200 QW ≦3 mg/kg", "result": 0},
      {"measurement": "TEAE Abdominal pain Grade 4, subjects", "setting": "Cohort 3, 200 QW ≦3 mg/kg", "result": 0},
      {"measurement": "TEAE Abdominal pain Grade 5, subjects", "setting": "Cohort 3, 200 QW ≦3 mg/kg", "result": 0},
      {"measurement": "TEAE Abdominal pain Overall Frequency, subjects", "setting": "Cohort 3, 200 QW ≦3 mg/kg", "result": "3 (12%)"},
      {"measurement": "TEAE Diarrhea Grade 2, subjects", "setting": "Cohort 3, 200 QW ≦3 mg/kg", "result": "1 (4.0%)"},
      {"measurement": "TEAE Diarrhea Grade 3, subjects", "setting": "Cohort 3, 200 QW ≦3 mg/kg", "result": "1 (4.0%)"},
      {"measurement": "TEAE Diarrhea Grade 4, subjects", "setting": "Cohort 3, 200 QW ≦3 mg/kg", "result": 0},
      {"measurement": "TEAE Diarrhea Grade 5, subjects", "setting": "Cohort 3, 200 QW ≦3 mg/kg", "result": 0},
      {"measurement": "TEAE Diarrhea Overall Frequency, subjects", "setting": "Cohort 3, 200 QW ≦3 mg/kg", "result": "5 (20%)"},
      {"measurement": "TEAE Hypokalaemia Grade 2, subjects", "setting": "Cohort 3, 200 QW ≦3 mg/kg", "result": "1 (4.0%)"},
      {"measurement": "TEAE Hypokalaemia Grade 3, subjects", "setting": "Cohort 3, 200 QW ≦3 mg/kg", "result": 0},
      {"measurement": "TEAE Hypokalaemia Grade 4, subjects", "setting": "Cohort 3, 200 QW ≦3 mg/kg", "result": 0},
      {"measurement": "TEAE Hypokalaemia Grade 5, subjects", "setting": "Cohort 3, 200 QW ≦3 mg/kg", "result": 0},
      {"measurement": "TEAE Hypokalaemia, subjects", "setting": "Cohort 3, 200 QW ≦3 mg/kg", "result": "1 (4.0%)"},
      {"measurement": "TEAE Nausea Grade 2, subjects", "setting": "Cohort 3, 200 QW ≦3 mg/kg", "result": "3 (12%)"},
      {"measurement": "TEAE Nausea Grade 3, subjects", "setting": "Cohort 3, 200 QW ≦3 mg/kg", "result": "1 (4.0%)"},
      {"measurement": "TEAE Nausea Grade 4, subjects", "setting": "Cohort 3, 200 QW ≦3 mg/kg", "result": 0},
      {"measurement": "TEAE Nausea Grade 5, subjects", "setting": "Cohort 3, 200 QW ≦3 mg/kg", "result": 0},
      {"measurement": "TEAE Nausea Overall Frequency, subjects", "setting": "Cohort 3, 200 QW ≦3 mg/kg", "result": "8 (32%)"},
      {"measurement": "TEAE Vomiting Grade 2, subjects", "setting": "Cohort 3, 200 QW ≦3 mg/kg", "result": "1 (4.0%)"},
      {"measurement": "TEAE Vomiting Grade 3, subjects", "setting": "Cohort 3, 200 QW ≦3 mg/kg", "result": "1 (4.0%)"},
      {"measurement": "TEAE Vomiting Grade 4, subjects", "setting": "Cohort 3, 200 QW ≦3 mg/kg", "result": 0},
      {"measurement": "TEAE Vomiting Grade 5, subjects", "setting": "Cohort 3, 200 QW ≦3 mg/kg", "result": 0},
      {"measurement": "TEAE Vomiting Overall Frequency, subjects", "setting": "Cohort 3, 200 QW ≦3 mg/kg", "result": "4 (16%)"},
      {"measurement": "Abnormal ALT >3-5x ULN, Any Time Between Week 2 and Week 10, subjects", "setting": "Cohort 3, >3.0 mg/kg/wk", "result": "1 (7.1%)"}
    ]}
  ]
}
